Source: US20060286626A1, “Selective chromophores” (priority 2002, published 2006)
“Also recorded” adds a separate entry of the source.

Columns and labels:
Type in all cases: cell-based
[1] = test system: sections of testis from rat; assay: Fluorescent staining of testis sections from rat; conditions: for cells stained / affinity in testis: 15 minutes incubation, concentration not given; for concentration dependence of staining in testis: 0.05-50 μg/ml
Procedure: Testis tissues were obtained from a male Sprague-Dawley rat, which has been used as a control in another study. The tissues were fixed in 4% formaldehyde, imbedded in paraffin and sectioned into 4 μm thick slices before dewaxed and hydrated. Stock solutions containing 5 mg dye/ml DMSO and ethanol were made. These were diluted to 0.05, 0.5, 5, 10, and 50 μg/ml with water. At the time of the experiment, 100 μl from each solution was added to the sections, respectively. The sections were incubated for 15 minutes before the excess dye was removed by washing with water.
To se if and if so, the position of benzosuccinimidyl as a substituent alters the affinity of the dyes testis was stained with the two PASU dyes.
(§1) Fluorescence microscopic experiments were performed with a Zeizz (West Germany) microscope equipped with Plan Neofuar 40/0.9 I mm Ph3 and Plan Neofuar 25/0.8 W-Oel Ph2 objectives. A Winder M35 camera was used to obtain the microscopic images.

[2] = test system: small intestine sections from rats; assay: Fluorescent staining of small intestine sections from rat
Description: Derivatives of Nile Red (FIG. 1) were synthesized and their staining of testis and small intestine sections from rats were studied. Nile Red is a member of benzophenoxazine compounds that provide a family of fluorescent dyes, which can be used, for labelling biological molecules in various applications. The phenoxazine dyes tend to have a large Stokes' shift of 80-100 nm. Nile Red is a highly fluorescent dye, which absorbs energy above 550 nm. Consequently it has mainly been used for lipid staining but also as a solvatrochromic probe to measure the solvent strength of several liquids.
as §1

[3] = test system: human cell line of fibro sarcom, HT80; assay: Staining of human fibro sarcoma cells; conditions: live HT80 cells, 5 μg/ml, without Triton-x
Description: The positively charged part of the molecule might bind to the anionic phosphate group of phospholipids present in the plasma membrane. Since the PASU dyes are uncharged and relatively small molecules they have the ability to pass through the outer layer of the cells. […] To answer the question of what the dyes have affinity for further investigations have to be performed. Furthermore the dyes can be used for detection of receptors of cells. […] By adding a substance that induce conformational changes of the receptor which result in that the dye fit to the receptor, or use a dye with a substituent that fit in the inactivated receptor, the targets, receptors, can be detected as small fluorescent particles, so called pits. Thus, the dyes can be used to detect receptors and follow conformational changes of the receptor, activation-inactivation of receptor.
The stock solutions of the dyes were diluted with PBS or PBS+Triton-x to 5 μg/ml when added to both fixed and unfixed mature fibro sarcoma cells, cell line HT 80. Due to lack of time only the live cells untreated with Triton-x are discussed in the result.

SMILES | cells stained / affinity in testis [1] | concentration dependence of staining in testis [1] | part of the cell stained [3] | also measured
CN(C)c1ccc2nc3c4cc(OCCCN5C(=O)c6ccccc6C5=O)ccc4c(=O)cc-3oc2c1 [PASU-1, 1-[3-(9-Dimethylamino-5-oxo-5H-benzo[a]phenoxazine-2-yloxy)-propyl]-isoindole-1,3-dione] | does not have any affinity | – | – | –
CN(C)c1ccc2nc3c4cc(OCCCN)ccc4c(=O)cc-3oc2c1 [PA-2, 2-(3-Amino-propoxy)-9-dimethylamino-benzo[a]phenoxazine-5-one] | stains stem cells selectively; also recorded: stains stem cells and spermatocytes; also recorded: high affinity for stem cells and spermatocytes; also recorded: has affinity for stem cells at low concentrations | the concentration of the dye added to the tissue determined which cells that were stained | – | cells stained in testis ([1]; dye 0.05 μg/ml): only stem cells were stained; cells stained in testis ([1]; dye 0.5 μg/ml): germ cells and spermatides fluoresced as well; cells stained in testis ([1]; dye 10 μg/ml): spermatocytes were stained as well; structures stained in small intestine ([2]; slices of small intestine from rat): all nucleuses
CN(C)c1ccc2nc3c4cc(OCCCN5C(=O)c6ccccc6C5=O)ccc4c(=O)cc-3oc2c1 [PASU-3, 3-[3-(9-Dimethylamino-5-oxo-5H-benzo[a]phenoxazine-2-yloxy)-propyl]-isoindole-1,3-dione] | stain different cells and parts of cells; also recorded: stains stem cells but not spermatides and spermatozoa | – | – | –
CN(C)c1ccc2nc3c4cc(OCCCN5C(=O)c6ccccc6C5=O)ccc4c(=O)cc-3oc2c1 [PASU-2, 2-[3-(9-Dimethylamino-5-oxo-5H-benzo[a]phenoxazine-2-yloxy)-propyl]-isoindole-1,3-dione] | stains spermatides and spermatozoa; also recorded: stain different cells and parts of cells; also recorded: has preferences to sperms and spermatides; also recorded: binds to spermatides and spermatozoa | – | stains the cytoplasm but not the nucleus | concentration dependence of staining in small intestine ([2]; small intestine from rat): differs a lot with the concentration of dye
CN(C)c1ccc2nc3c4cc(OCCC[N+](C)(C)C)ccc4c(=O)cc-3oc2c1 [PATM-2, 9-Dimethylamino-2-(trimethylammonium-propoxy)-benzo[a]phenoxazin-5-one] | stains germ cells | no concentration dependence | stains the plasma membranes of the cells | permeability of the plasma membrane [3]: does not reach into the cytoplasm of the cells
